Measurements: BigSolDB 2.1

CN1CC(=O)N2[C@H](c3ccc4c(c3)OCO4)c3[nH]c4ccccc4c3C[C@@H]2C1=O
solubility (mole fraction)
Details | 298.15 K | 303.15 K | 308.15 K | 313.15 K | 318.15 K | 323.15 K | 328.15 K | 333.15 K
in transcutol | 0.00876 | 0.00973 | 0.0107 | 0.0119 | 0.0133 | 0.0149 | 0.0166 | 0.0182
in water | 5.74e-07 | 7.59e-07 | 1.02e-06 | 1.34e-06 | 1.75e-06 | 2.26e-06 | 2.77e-06 | 3.45e-06
